Target: T1, SAMHD1 (Homo sapiens, UniProt Q9Y3Z3)
T1 construct: wt-SAMHD1(1–626)
Assay: coupled enzyme assay (Ppx1/MDCC-PBP), competitive inhibition of TTP hydrolysis
Format: biochemical

T1 sequence (Q9Y3Z3 whole entry): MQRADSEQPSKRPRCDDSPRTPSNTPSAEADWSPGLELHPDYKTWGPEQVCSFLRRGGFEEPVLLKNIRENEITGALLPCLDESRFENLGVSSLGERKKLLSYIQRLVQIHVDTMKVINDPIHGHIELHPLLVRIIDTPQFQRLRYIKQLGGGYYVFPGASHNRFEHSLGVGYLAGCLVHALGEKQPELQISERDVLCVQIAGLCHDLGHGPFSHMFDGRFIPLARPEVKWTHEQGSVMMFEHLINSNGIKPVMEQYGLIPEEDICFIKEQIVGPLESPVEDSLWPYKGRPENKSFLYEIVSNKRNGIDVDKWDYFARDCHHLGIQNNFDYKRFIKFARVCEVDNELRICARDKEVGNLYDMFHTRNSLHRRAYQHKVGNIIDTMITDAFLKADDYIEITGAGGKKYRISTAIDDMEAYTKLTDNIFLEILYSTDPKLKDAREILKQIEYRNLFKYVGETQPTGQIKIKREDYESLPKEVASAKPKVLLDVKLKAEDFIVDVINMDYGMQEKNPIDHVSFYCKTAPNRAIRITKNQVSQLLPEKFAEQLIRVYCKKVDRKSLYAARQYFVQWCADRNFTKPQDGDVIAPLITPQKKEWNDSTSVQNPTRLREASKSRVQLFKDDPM

| Structure (SMILES) | Ki [µM] |
| --- | --- |
| Cc1cn([C@H]2C[C@H](O)[C@@H](CO[P@](O)(=S)OP(=O)(O)OP(=O)(O)O)O2)c(=O)[nH]c1=O [Sp-TTPαS] | 46 ± 2 |
| Nc1nc2c(ncn2[C@H]2C[C@H](O)[C@@H](CO[P@](O)(=S)OP(=O)(O)OP(=O)(O)O)O2)c(=O)[nH]1 [Sp-dGTPαS] | 0.82 ± 0.05 |
| Nc1ccn([C@H]2C[C@H](O)[C@@H](CO[P@](O)(=S)OP(=O)(O)OP(=O)(O)O)O2)c(=O)n1 [Sp-dCTPαS] | 6.3 ± 0.4 |
| Nc1ncnc2c1ncn2[C@H]1C[C@H](O)[C@@H](CO[P@](O)(=S)OP(=O)(O)OP(=O)(O)O)O1 [Sp-dATPαS] | 117 ± 7 |

— publication PMC8173608, “Probing the Catalytic Mechanism and Inhibition of SAMHD1 Using the Differential Properties of Rp- and Sp-dNTPαS Diastereomers” (Biochemistry, 2021)
